According to patent US7763615B2, “Ecteinascidin analogs for use as antitumour agents” (priority 2001, dated 2010):

How the values were obtained:
[1] = test system: H9c2 (2-1), normal rat cardiac muscle cells; conditions: 24 h
DU145 = test: cells; type: cell-based; conditions: Homo sapiens, DU-145, 48 h
Procedure, shortened: (§1)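 Readout: SRB OD490, triplicate wells. Setup: 5×10^3 cells/well, RPMI 1640 + 10% FBS, 37° C, 5% CO2; 18 h pre-attachment; 48 h sample exposure, 10 to 10^−8 μg/ml. Outputs GI, TGI (cytostatic), LC (cytotoxic).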

A498 = test: cells; type: cell-based; conditions: Homo sapiens
Procedure, shortened: as §1

MB231 = test: cells; type: cell-based; conditions: Homo sapiens
Procedure, shortened: as §1

SW-620 = test: cells; type: cell-based; conditions: Homo sapiens
Procedure, shortened: as §1

MCF = test: cells; type: cell-based; conditions: Homo sapiens
Procedure, shortened: as §1

MEL-28 = test: cells; type: cell-based; conditions: Homo sapiens, SK-MEL-28, 48 h
Procedure, shortened: as §1

A549 = test: cells; type: cell-based; conditions: Homo sapiens, A549, 48 h
Procedure, shortened: as §1

HT29 = test: cells; type: cell-based; conditions: Homo sapiens, HT-29, 48 h
Procedure, shortened: as §1

[2] = test system: AML-12, normal mouse liver cells; conditions: 24 h
[3] = test system: FDC-P1, normal mouse myelogeous stem cells; conditions: 24 h
[4] = test system: NRK-52E, normal rat kidney cells; conditions: 24 h
Experimental: In order to assess the cytotoxicity of the drugs to normal cells, we used 96 well plates plated at a density of 5000 cells per well (except for the FDC-P1 which were plated at 12,000 cells per well) with normal cell lines (ATCC, Table 1) maintained as per the directions of the ATCC: AML-12, normal mouse liver cells; NRK-52E, normal rat kidney cells; L8, normal rat skeletal muscle cells; FDC-P1, normal mouse myelogeous stem cells; and H9c2 (2-1), normal rat cardiac muscle cells. The cells in each plate were permitted to settle overnight before adding the test drug.
To each well (100 μl medium) 10 μl of drug in media was added at varying concentrations (1×10-10-0.01 mg/ml final concentration) and further incubated overnight at 37° C. with 5% CO2. After 24 h the following assays were performed. All experiments were repeated at least 3 times and were assayed in duplicate.
MTS assay (CellTiter 96 aqueous) was performed according to the manufacturer's (Promega) directions (for all cell types). Cell viability (mitochondrial activity) is determined via enzymatic conversion of the formazan substrate.

[5] = test system: L8, normal rat skeletal muscle cells; conditions: 24 h

COc1c(C)cc2c(c1O)[C@@H]1C3[C@@H]4SC[C@]5(NCCc6c5[nH]c5ccccc65)C(=O)COC[C@@H](c5c6c(c(C)c(OC(C)=O)c54)OCO6)N3[C@@H](O)[C@H](C2)N1C (some centres unmarked) [Compound 26]
Heart [1]: 6.43E−07
GI50 (DU145; DU145, 48 hours exposure, SRB): 2.65 nM
IC (TGI) (DU145; DU145, 48 hours exposure, SRB): 3.97 nM
CC50 (DU145; read-out: LC50, DU145, 48 hours exposure, SRB): 10.6 nM
CC50 (A498; A498, 48 h, read-out: LC50): 26.5 nM
GI50 (A498; A498, 48 hours exposure, SRB): 2.65 nM
IC (TGI) (A498; A498, 48 hours exposure, SRB): 6.62 nM
CC50 (MB231; 48 h, read-out: LC50): 13.2 nM
GI50 (MB231; MB231, 48 hours exposure, SRB): 2.65 nM
IC (TGI) (MB231; MB231, 48 hours exposure, SRB, read-out: TGI): 5.3 nM
CC50 (SW-620; SW-620, 48 h, read-out: LC50): 79.5 nM
IC (TGI) (SW-620; SW-620, 48 hours exposure, SRB): 7.95 nM
GI50 (SW-620; SW-620, 48 hours exposure, SRB, read-out: GI50): 2.65 nM
CC50 (MCF; 48 h, read-out: LC50): 11.9 nM
GI50 (MCF; MCF, 48 hours exposure, SRB): 2.65 nM
IC (TGI) (MCF; MCF, 48 hours exposure, SRB, read-out: TGI): 5.3 nM
GI50 (MEL-28; MEL-28, 48 hours exposure, SRB): 2.65 nM
IC (TGI) (MEL-28; MEL-28, 48 hours exposure, SRB): 5.3 nM
CC50 (MEL-28; read-out: LC50, MEL-28, 48 hours exposure, SRB): 10.6 nM
GI50 (A549; A549, 48 hours exposure, SRB, read-out: GI50): 2.65 nM
IC (TGI) (A549; A549, 48 hours exposure, SRB, read-out: TGI): 3.97 nM
CC50 (A549; read-out: LC50, A549, 48 hours exposure, SRB): 13.2 nM
GI50 (HT29; HT29, 48 hours exposure, SRB): 3.97 nM
IC (TGI) (HT29; HT29, 48 hours exposure, SRB): 7.95 nM
CC50 (HT29; read-out: LC50, HT29, 48 hours exposure, SRB): 13.2 nM
Liver [2]: 1.06E−06
Myelo [3]: 1.03E−07
Kidney [4]: 4.60E−08
Skeletal [5]: 3.71E−08
